Square brackets hold non-standard residues; d marks the D form. Primed or numbered codes have the meaning given here. Ends that are not written are not given here. Lys(N3) = [N-]=[N+]=NCCCC[C@H](N)C(=O)O; hCys = N[C@@H](CCS)C(=O)O; PEG4′ = not defined here
Test system: Human aortic endothelial cells
Assay: Human aortic endothelial cells grown 48 h on bare or peptide-coated nitinol disks; F-actin and CD31 fluorescence image analysis
Format: cell-based
Conditions: for CD31/Actin score: Example 2, FIG. 25, compared to bare metal disks or disks coated with PDA alone; for F-actin expression (cellular stress), Integrated Density / CD31 expression, Integrated Density: HAEC 48 h on coated nitinol disks; for F-actin expression (cellular stress), Integrated Density: phalloidin staining, compared to bare metal, FIGS. 2, 3, 5; for CD31 expression, Integrated Density: anti-CD31 domain 1 antibody, compared to other modified disks and bare controls, FIGS. 2, 4, 5
Method: Nitinol disks are left untouched (bare metal) or coated with a domain 1, domain 2 or domain 1 and 2 CD31 analog peptide. The tested peptide is grafted to the nitinol disk following a polydopamine, DBCO-PEG4-amine and azide CD31 derivative peptide using a sequential dip-coating layering procedure. After this step, all the disks are incubated with Human aortic endothelial cells for 48h. Disks are then rinsed and the cells are fixed in a formalin solution before staining. The staining is fulfilled using phalloidin coupled to AlexaFluor®488 dye (green fluorescence for Actin), DAPI is used for DNA staining and a domain 1 CD31 antibody coupled to APC is used for external Domain 1 staining. The cell adhesion and Actin/CD31 expression was evaluated by image analysis of the surface after staining.
In particular, as per FIG. 2 the bare or coated nitinol disks were placed at the bottom of culture wells. Primary Human Aortic Endothelial Cells (HAEC) were allowed to grow on the disks for a period of 48 h. The disks were thereafter rinsed with phosphate buffered saline, fixed in formalin, and processed for fluorescence microscopy. Disk-adherent cells were immersed in a solution comprising Hoechst 33342 (1 μg/ml, to stain the nuclei), phalloidin coupled to AlexaFluor®488 dye (0.5 μM, to stain F-actin fibers) and a monoclonal antibody directed against CD31 domain 1, coupled to allophycocyanin (to detect the presence and localization of intact CD31 at the cell surface) for 1 hour at 37° C., washed and mounted face down on glass bottom imaging chambers for imaging with an inverted fluorescence microscope.
Surface type is indicated on the Y axis, data are expressed as average±SD (N=6/surface type). Each dot corresponds to a specific surface modification. The F-actin expression relates the cellular stress of the cell in presence of the exogenous material.
In FIG. 4 the surface type is indicated on the Y axis. Each dot corresponds to a specific surface modification. Data are expressed as “Integrated Density” average±SD (N=6/surface type). CD31 expression relates the capacity of endothelial cells to adopt a physiologic phenotype while growing on a given substrate. An important variability is observed in terms of CD31 expression by HAEC according to the surface modification of the nitinol disks.
The effect of different peptides, belonging to the different groups, were tested in batches following the same protocol as in FIG. 6. Different peptides from each group were tested in batches and the effect of individual peptides was repeatedly assessed in separate experiments. Data from all experiments were obtained by computer-assisted analysis of images of the disk side covered with endothelial cells, captured in the blue, green and red channel of an inverted fluorescence microscope. The functional score of the peptides belonging to the different groups was calculated by multiplying the number of cells (as detected by the number of blue, Dapi+ nuclei) for the integrated density of CD31 expression (red signal provided by the binding of a mouse anti-human CD31 monoclonal antibody, clone 9G11, conjugated allophycocyanin) and their product being divided for the integrated density of the F-actin polymerization (Phalloidin coupled to a green fluorochrome).
The same protocol as in Example 1 was followed, using peptides according to the invention (SP547, SP548 SP745, SP1374, SP1072, SP1070, SP1071, SP1379 and SP1383) as defined above and the prior art peptide P8RI of sequence KWPALFVR (SEQ ID NO: 52).
The “CD31/Actin” score, resulting from the integrated density of CD31 immunostaining signal divided by the signal of phalloidin, which binds to the polymerized F-actin of the cytoskeleton, has been used to identify the physiological/non-stressed character of the arterial endothelial cells growing onto the surface of experimental disks placed at the bottom of culture wells. […]

Row | Substance | CD31/Actin score | F-actin expression (cellular stress), Integrated Density | CD31 expression, Integrated Density (listed as 1374) | CD31 expression, Integrated Density (listed as SP 1374) | ratio between CD31 and F-actin expression (compared to bare metal and disks coated with PDA only, FIG. 6)
1 | [^#CH2CONH2GTYKSTVIVNNKEKTTAEYQ-(Ttds)4-K(N3)-NH2]-[QHQMLFYhC^#DDVLFYNISSMK-CONH2] (chain 1 GTYKSTVIVNNKEKTTAEYQ-{Ttds-Ttds-Ttds-Ttds-Lys(N3)-NH2}; chain 2 QHQMLFY[hCys]DDVLFYNISSMK-NH2; not fully specified (N-terminus); also: thioether at chain B 8 to a chain's N-terminus) [SP1379] | significantly higher | – | – | – | –
2 | RDQNFVILEFP-PEG4-K(N3)-NH2 [SP1070] | significantly higher | does not show an influence on the cellular stress | – | – | –
3 | hCHQMLFYKDDVLFYNISShCK-Ttds-Ttds-Ttds-Ttds-K(N3)-CONH2 ([hCys]HQMLFYKDDVLFYNISS[hCys]K-{Ttds-Ttds-Ttds-Ttds-Lys(N3)-NH2}; cysteine pairing not given here) [SP1374] | significantly higher | low cellular stress (low actin expression) | evident positive effect in terms of CD31 expression | consistent functional endothelial phenotype (high CD31 expression) | higher CD31/actin ratio
4 | Ac-YKDDVLFYNISSMKST-GGSGGSGG-K(N3)-NH2 (Ac-YKDDVLFYNISSMKSTGGSGGSGG[Lys(N3)]-NH2; SMILES CC[C@H](C)[C@H](NC(=O)[C@H](CC(N)=O)NC(=O)[C@H](Cc1ccc(O)cc1)NC(=O)[C@H](Cc1ccccc1)NC(=O)[C@H](CC(C)C)NC(=O)[C@@H](NC(=O)[C@H](CC(=O)O)NC(=O)[C@H](CC(=O)O)NC(=O)[C@H](CCCCN)NC(=O)[C@H](Cc1ccc(O)cc1)NC(C)=O)C(C)C)C(=O)N[C@@H](CO)C(=O)N[C@@H](CO)C(=O)N[C@@H](CCSC)C(=O)N[C@@H](CCCCN)C(=O)N[C@@H](CO)C(=O)N[C@H](C(=O)NCC(=O)NCC(=O)N[C@@H](CO)C(=O)NCC(=O)NCC(=O)N[C@@H](CO)C(=O)NCC(=O)NCC(=O)N[C@@H](CCCCN=[N+]=[N-])C(N)=O)[C@@H](C)O) [SP548] | equivalent to those of sections coated by other peptides according to the invention | – | – | – | –
5 | Ac-K(N3)-GGSGGSGG-YKDDVLFYNISSMKST-NH2 (Ac-[Lys(N3)]GGSGGSGGYKDDVLFYNISSMKST-NH2; SMILES CC[C@H](C)[C@H](NC(=O)[C@H](CC(N)=O)NC(=O)[C@H](Cc1ccc(O)cc1)NC(=O)[C@H](Cc1ccccc1)NC(=O)[C@H](CC(C)C)NC(=O)[C@@H](NC(=O)[C@H](CC(=O)O)NC(=O)[C@H](CC(=O)O)NC(=O)[C@H](CCCCN)NC(=O)[C@H](Cc1ccc(O)cc1)NC(=O)CNC(=O)CNC(=O)[C@H](CO)NC(=O)CNC(=O)CNC(=O)[C@H](CO)NC(=O)CNC(=O)CNC(=O)[C@H](CCCCN=[N+]=[N-])NC(C)=O)C(C)C)C(=O)N[C@@H](CO)C(=O)N[C@@H](CO)C(=O)N[C@@H](CCSC)C(=O)N[C@@H](CCCCN)C(=O)N[C@@H](CO)C(=O)N[C@H](C(N)=O)[C@@H](C)O) [SP547] | equivalent to those of sections coated by other peptides according to the invention | – | – | – | –
6 | Ac-K(N3)-PEG4-PRVTLDKKEAIQGGIVRVNSSVPEEK-CONH2 (Ac-[Lys(N3)][PEG4′]PRVTLDKKEAIQGGIVRVNSSVPEEK-NH2) [SP1071] | significantly higher | – | – | – | –

From patent publication US20250281679A1, “BIOMIMETIC COATING FOR ENDOVASCULAR STENT” (INSERM (Institut National de la Santé et de la Recherche …, priority 2021, published 2025)
